# From US20230406859A1, “METHOTREXATE ANALOGS AND METHODS OF USE” (The United States of America, as represented by the …, priority 2020, published 2023)
# Assays:
# [1] = system: HBL1 cell line; test: CellTiter-Glo cell viability (cytotox), HBL1 cell line, 72 hours; type: cell-based; conditions: HBL1 cell line, CellTiter-Glo; unit inferred
# Experimental: CellTiter-Glo viability assays: Five μL of cells (2500 cells) from the 12-well plate culture were plated into white 1536-well plates (Greiner, Monroe, NC, 789173-F) in 6 replicates. CellTiter-Glo Luminescent Cell Viability Assay (CTG) (Promega, G7572), 2.5 μL/well reagent was added with a BioRAPTR FRD (Beckman Coulter, Sykesville, MD), plates were incubated in the dark at ambient temperature for 10 min, and luminescence measured with a ViewLux 1430 Ultra HTS (Perkin Elmer, Waltham, MA).
# [2] = target: T1, human DHFR-HiBiT fusion protein (Homo sapiens, UniProt P00374); test: DHFR-HiBiT assay (high-throughput DHFR abundance) in HBL1 cells; type: cell-based; conditions: for Dmax: % change in untreated cellular DHFR level (control), negative = degradation, positive = stabilization, HBL1, 24 h, read-out: efficacy (%)
# T1 construct: expressed in transfected cells; host or cells: HBL1 cells retrovirally infected with pBMN-Ires-Lyt-2 carrying DHFR-HiBiT
# T1 sequence (P00374 with tags, fused parts or gaps): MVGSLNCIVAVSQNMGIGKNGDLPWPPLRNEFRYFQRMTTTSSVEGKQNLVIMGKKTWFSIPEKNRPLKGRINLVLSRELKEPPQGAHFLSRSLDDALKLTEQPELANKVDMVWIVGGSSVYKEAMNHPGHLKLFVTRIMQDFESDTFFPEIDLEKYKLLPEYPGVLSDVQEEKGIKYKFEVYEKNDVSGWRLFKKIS
# From the text: The human DHFR-HiBiT construct was synthetized (Bio Basic) and cloned into the retroviral vector pBMN-Ires-Lyt-2 (provided by G. Nolan, Stanford University, Stanford, CA) which expresses the coding region of mouse CD8a (Lyt-2) using the restriction sites BamHI/XhoI. All constructs were sequenced to validate authenticity. Infected cells were positively selected based on murine CD8a expression using magnetic beads (Miltenyi Biotech).
# Cell culture: Human embryonic kidney HEK293T cells were maintained in DMEM (Gibco) supplemented with 10% fetal bovine serum (Hyclone), 2 mmol/L 1-glutamine, HEPES (Gibco) and 100 U/mL penicillin/streptomycin (Invitrogen). The lymphoma cell line HBL1 were maintained in RPMI (Life Technology) supplemented with 5% fetal bovine serum (Hyclone), 2 mmol/L L-glutamine, HEPES (Gibco) and 100 U/mL penicillin/streptomycin (Invitrogen).
# Transfection and retroviral infections: Transfections were performed using Lipofectamine 2000 (Invitrogen) according to the manufacturer's protocol. For retroviral infections, viruses were produced in HEK293T cells and used to infect HBL1 cell line. […] Supernatants containing the retrovirus were collected and filtered at 48- and 72-hours post-transfection. HBL1 cells were centrifuged and then resuspended with the retroviral supernatant with 8 μg/ml of polybrene. The cells were spin-infected twice on consecutive days at 2,500 rpm, at RT, for 90 minutes.
# Lytic HiBiT Detection: Cells were plated in solid white 1536-well tissue culture plates (Greiner), at the concentration of 2000 cells/well. After treatment, an equal volume of Nano-Glo HiBiT Lytic Reagent (Promega) containing the substrate furimazine and Large BiT (LgBiT) was added to the cells according to the manufacturer's protocol. Cells were incubated for 10 min at room temperature, and luminescence was measured using a Perkin Elmer ViewLux microplate imager with 30 seconds of exposure time.
Dmax [2],"DC50 ([2]; HBL1 cells expressing DHFR-HiBiT, 24 h, degradation or stabilization potency, average of N = 2-5, read-out: Ave EC50)",SMILES,IC50 [1]
62.3%,–,COC(=O)[C@H](CCC(=O)NCCCCCCCCNc1cccc2c1C(=O)N(C1CCC(=O)NC1=O)C2=O)NC(=O)CC[C@H](NC(=O)c1ccc(N(C)Cc2cnc3nc(N)nc(N)c3n2)cc1)C(=O)O (stereo partly shown) [NCGC00687576],17 µM
48.1%,–,"COC(=O)[C@H](CCC(=O)NCCCCCCCCNc1cccc2c1C(=O)N(C1CCC(=O)NC1=O)C2=O)NC(=O)CC[C@H](NC(=O)CC[C@H](NC(=O)CC[C@H](NC(=O)c1ccc(N(C)Cc2cnc3nc(N)nc(N)c3n2)cc1)C(=O)O)C(=O)OC)C(=O)OC (stereo partly drawn) [NCGC00687807, (2S,7S,12S,17S)-2-(4-(((2,4-diaminopteridin-6-yl)methyl)(methyl)amino)benzamido)-29-((2-(2,6-dioxopiperidin-3-yl)-1,3-dioxoisoindolin-4-yl)amino)-7,12,17-tris(methoxycarbonyl)-5,10,15,20-tetraoxo-6,11,16,21-tetraazanonacosanoic acid]",20.8 µM
62.9%,–,COC(=O)[C@H](CCC(=O)NCCCCCCCCNc1cccc2c1C(=O)N(C1CCC(=O)NC1=O)C2=O)NC(=O)c1ccc(N(C)Cc2cnc3nc(N)nc(N)c3n2)cc1 (stereo partly shown) [NCGC00687472],12.2 µM
40.5%,–,"COC(=O)[C@H](CCC(=O)NCCCCCCCCNc1cccc2c1C(=O)N(C1CCC(=O)NC1=O)C2=O)NC(=O)CC[C@H](NC(=O)CC[C@H](NC(=O)CC[C@H](NC(=O)CC[C@H](NC(=O)c1ccc(N(C)Cc2cnc3nc(N)nc(N)c3n2)cc1)C(=O)O)C(=O)OC)C(=O)OC)C(=O)OC (stereo partly drawn) [NCGC00687811, (2S,7S,12S,17S,22S)-2-(4-(((2,4-diaminopteridin-6-yl)methyl)(methyl)amino)benzamido)-34-((2-(2,6-dioxopiperidin-3-yl)-1,3-dioxoisoindolin-4-yl)amino)-7,12,17,22-tetrakis(methoxycarbonyl)-5,10,15,20,25-pentaoxo-6,11,16,21,26-pentaazatetratriacontanoic acid]",22.4 µM
53.9%,–,"COC(=O)[C@H](CCC(=O)NCCCCCCCCNc1cccc2c1C(=O)N(C1CCC(=O)NC1=O)C2=O)NC(=O)CC[C@H](NC(=O)CC[C@H](NC(=O)c1ccc(N(C)Cc2cnc3nc(N)nc(N)c3n2)cc1)C(=O)O)C(=O)OC (stereo partly drawn) [NCGC00687569, N2-(4-(((2,4-diaminopteridin-6-yl)methyl)(methyl)amino)benzoyl)-N5-((2S)-5-(((2S)-5-((8-((2-(2,6-dioxopiperidin-3-yl)-1,3-dioxoisoindolin-4-yl)amino)octyl)amino)-1-methoxy-1,5-dioxopentan-2-yl)amino)-1-methoxy-1,5-dioxopentan-2-yl)-L-glutamine]",21.5 µM
56.9%,–,CN(Cc1cnc2nc(N)nc(N)c2n1)c1ccc(C(=O)N[C@@H](CCC(=O)NCCOCCOCCNc2cccc3c2C(=O)N(C2CCC(=O)NC2=O)C3=O)C(=O)O)cc1 (stereo partly shown) [NCGC00687555],3.93 µM
-93.2%,3 µM,"CN1C(=O)CCC(N2C(=O)c3cccc(NCCCCCCCCNC(=O)CC[C@H](NC(=O)c4ccc(N(C)Cc5cnc6nc(N)nc(N)c6n5)cc4)C(=O)O)c3C2=O)C1=O (stereo partly drawn) [NCGC00687847, N2-(4-(((2,4-diaminopteridin-6-yl)methyl)(methyl)amino)benzoyl)-N5-(8-((2-(1-methyl-2,6-dioxopiperidin-3-yl)-1,3-dioxoisoindolin-4-yl)amino)octyl)-L-glutamine]",25.4 µM

# The next lines start with the compound.
SMILES,Dmax [2],"DC50 ([2]; HBL1 cells expressing DHFR-HiBiT, 24 h, degradation or stabilization potency, average of N = 2-5, read-out: Ave EC50)",IC50 [1]
"CN(Cc1cnc2nc(N)nc(N)c2n1)c1ccc(C(=O)N[C@@H](CCC(=O)O)C(=O)NCCCNc2cccc3c2C(=O)N(C2CCC(=O)NC2=O)C3=O)cc1 (stereo partly drawn) [NCGC00690412, (4S)-4-(4-(((2,4-diaminopteridin-6-yl)methyl)(methyl)amino)benzamido)-5-((3-((2-(2,6-dioxopiperidin-3-yl)-1,3-dioxoisoindolin-4-yl)amino)propyl)amino)-5-oxopentanoic acid]",–,–,38.6 µM
"CN(Cc1cnc2nc(N)nc(N)c2n1)c1ccc(C(=O)N[C@@H](CCC(=O)O)C(=O)NCCOCCOCCOCCNC(=O)COc2cccc3c2C(=O)N(C2CCC(=O)NC2=O)C3=O)cc1 (stereo partly drawn) [NCGC00690069, (17S)-17-(4-(((2,4-diaminopteridin-6-yl)methyl)(methyl)amino)benzamido)-1-((2-(2,6-dioxopiperidin-3-yl)-1,3-dioxoisoindolin-4-yl)oxy)-2,16-dioxo-6,9,12-trioxa-3,15-diazaicosan-20-oic acid]",–,–,35.8 µM
"Nc1nc(N)c2nc(CN(CCCCCCNC(=O)CCOCCOCCOCCOCCOc3cccc4c3C(=O)N(C3CCC(=O)NC3=O)C4=O)c3ccc(C(=O)N[C@@H](CCC(=O)O)C(=O)O)cc3)cnc2n1 (stereo partly shown) [NCGC00690395, (4-(((2,4-diaminopteridin-6-yl)methyl)(1-((2-(2,6-dioxopiperidin-3-yl)-1,3-dioxoisoindolin-4-yl)oxy)-15-oxo-3,6,9,12-tetraoxa-16-azadocosan-22-yl)amino)benzoyl)glutamic acid]",32.8%,–,33.4 µM
"Nc1nc(N)c2nc(CN(CCCCCCNC(=O)COc3cccc4c3C(=O)N(C3CCC(=O)NC3=O)C4=O)c3ccc(C(=O)N[C@@H](CCC(=O)O)C(=O)O)cc3)cnc2n1 (stereo partly shown) [NCGC00690396, (4-(((2,4-diaminopteridin-6-yl)methyl)(6-(2-((2-(2,6-dioxopiperidin-3-yl)-1,3-dioxoisoindolin-4-yl)oxy)acetamido)hexyl)amino)benzoyl)glutamic acid]",–,–,26.6 µM
"Cc1ncsc1-c1ccc(CNC(=O)[C@@H]2C[C@@H](O)CN2C(=O)C(NC(=O)CCOCCOCCOCCOCCC(=O)NCCCCCCN(Cc2cnc3nc(N)nc(N)c3n2)c2ccc(C(=O)N[C@@H](CCC(=O)O)C(=O)O)cc2)C(C)(C)C)cc1 (stereo partly drawn) [NCGC00690398, (4-(((2,4-diaminopteridin-6-yl)methyl)(3-((2S,4R)-4-hydroxy-2-((4-(4-methylthiazol-5-yl)benzyl)carbamoyl)pyrrolidine-1-carbonyl)-2,2-dimethyl-5,20-dioxo-8,11,14,17-tetraoxa-4,21-diazaheptacosan-27-yl)amino)benzoyl)glutamic acid]",26%,–,36.7 µM
"COC(=O)[C@H](CCC(=O)NCCOCCOCCOCCNC(=O)COc1cccc2c1C(=O)N(C1CCC(=O)NC1=O)C2=O)NC(=O)c1ccc(N(C)Cc2cnc3nc(N)nc(N)c3n2)cc1 (stereo partly drawn) [NCGC00842394, Methyl (19S)-19-(4-(((2,4-diaminopteridin-6-yl)methyl)(methyl)amino)benzamido)-1-((2-(2,6-dioxopiperidin-3-yl)-1,3-dioxoisoindolin-4-yl)oxy)-2,16-dioxo-6,9,12-trioxa-3,15-diazaicosan-20-oate]",27.6%,–,33.9 µM
"CN(Cc1cnc2nc(N)nc(N)c2n1)c1ccc(C(=O)N[C@@H](CCC(=O)O)C(=O)NCCOCCOCCNc2cccc3c2C(=O)N(C2CCC(=O)NC2=O)C3=O)cc1 (stereo partly drawn) [NCGC00690407, (4S)-4-(4-(((2,4-diaminopteridin-6-yl)methyl)(methyl)amino)benzamido)-5-((2-(2-(2-((2-(2,6-dioxopiperidin-3-yl)-1,3-dioxoisoindolin-4-yl)amino)ethoxy)ethoxy)ethyl)amino)-5-oxopentanoic acid]",–,–,32.9 µM
"Cc1ncsc1-c1ccc(CNC(=O)[C@@H]2C[C@@H](O)CN2C(=O)C(NC(=O)CCOCCOCCC(=O)NCCCCCCN(Cc2cnc3nc(N)nc(N)c3n2)c2ccc(C(=O)N[C@@H](CCC(=O)O)C(=O)O)cc2)C(C)(C)C)cc1 (stereo partly drawn) [NCGC00690397, (4-(((2,4-diaminopteridin-6-yl)methyl)(3-((2S,4R)-4-hydroxy-2-((4-(4-methylthiazol-5-yl)benzyl)carbamoyl)pyrrolidine-1-carbonyl)-2,2-dimethyl-5,14-dioxo-8,11-dioxa-4,15-diazahenicosan-21-yl)amino)benzoyl)glutamic acid]",64.1%,–,28.7 µM
"CN(Cc1cnc2nc(N)nc(N)c2n1)c1ccc(C(=O)NC(CCC(=O)O)C(=O)NCCCCCCCCNc2cccc3c2C(=O)N(C2CCC(=O)NC2=O)C3=O)cc1 (stereo not shown) [NCGC00690075, 4-(4-(((2,4-diaminopteridin-6-yl)methyl)(methyl)amino)benzamido)-5-((8-((2-(2,6-dioxopiperidin-3-yl)-1,3-dioxoisoindolin-4-yl)amino)octyl)amino)-5-oxopentanoic acid]",–,–,70 µM
